The text below walks through data of patent US20200289441A1, “METHODS FOR PROMOTING HAIR GROWTH USING VALPROIC ACID” (FOLLICA, INC., priority 2017, published 2020).

Each structure is given as a SMILES string.

The test system of test [1] is neofollicle germs in the wound area. Description: Neofollicle germ formation after full thickness excision (FTE) in mice, counted by confocal imaging and AP staining. Type of test: in vivo, C57BL6/J female mice. The procedure: A study was conducted to assess the degree to which valproic acid could stimulate growth of new hair follicles by in mice when applied after a full thickness excision (FTE) procedure. FTE creates a zone of hair follicles that are 100% newly formed and removes noise from other clouding factors (e.g., migration of pre-existing follicles into the wound) (e.g., as described in Ito et. al., Nature, May 2007, “Wnt-dependent de novo hair follicle regeneration in adult mouse skin after wounding”, the contents of which is herein incorporated by reference in its entirety). The study was conducted with 2 arms (1) vehicle control and (2) 8.3% valproic acid; n=21 mice per arm). Valproic acid or placebo was applied twice daily for 4 days following scab detachment. The resulting data was analyzed and compared to a vehicle compound control cohort.
Day-12 C57BL6/J female mice pups (Jackson Labs) were maintained in cages and fed a high fat diet until day of surgery. […] After 1 hour, the mice were injected with ketamine (70 mg/kg)-xylazine (8 mg/kg), assigned a Study ID, and weight was recorded. […]
The degree of neofollicle germ formation was measured in the wound area, using imaging by confocal microscopy (confocal scanning laser microscope (CSLM) (VivaScope 1500, Lucid Inc., Rochester, N.Y., USA) and counting the number of early hair follicles developing underneath the surface of the skin. […]

The test system of test [2] is total hair counts. The following applies: topical; male patients with androgenetic alopecia; Jo et al., Journal of Dermatology 2014; cited from earlier work.

On to `CCCC(CCC)C(=O)O` [Valproic Acid, 2-propylpentanoic acid], for which the “Number of neofollicles versus FTE + vehicle treated controls (in words)” value in test [1] (FTE + VPA 8.3% topical twice daily for 4 days, mice) is listed as “strong trend indicating increased numbers of neofollicles”. Further, the “Mean count of neofollicles (Primary 1 + Primary 2 scoring categories)” value in test [1] (FTE mice, 8.3% valproic acid in 50% ethanol/30% water/20% propylene glycol, topical 20 uL twice daily for 4 days after scab detachment, n=15, vehicle control 26.3 (n=21), one-tail P 0.066) came out at 37.1. Besides, the “Total hair count (in words)” value in test [2] was “increase total hair counts”.
